ChEMBL document CHEMBL2163268, “Structure-based design of a novel series of potent, selective inhibitors of the class I phosphatidylinositol 3-kinases” (J Med Chem, 2012)

Tests used:
[1] = target: Phosphatidylinositol 4,5-bisphosphate 3-kinase catalytic subunit gamma isoform (Homo sapiens, UniProt P48736); assay: biochemical
Description: Inhibition of human N-terminal poly-His tagged-PI3Kgamma expressed in Sf9 baculovirus system co-expressing p85alpha after 20 mins by AlphaScreen assay

in vivo [2] = conditions: rat, iv, 1 mg/kg
Description: Clearance in rat at 1 mg/kg, iv

in vitro = conditions: rat, liver microsomes
Description: Intrinsic clearance in rat liver microsomes

in vivo [3] = conditions: rat, plasma, po, 2 mg/kg
in vivo [4] = conditions: rat, iv, 1 mg/kg; remark: listed apart in the source
Description: Mean residence time in rat at 1 mg/kg, iv

[5] = Oral bioavailability in rat at 2 mg/kg; format: ADME, organism-based; conditions: in vivo
[6] = target: T1, Phosphatidylinositol 4,5-bisphosphate 3-kinase catalytic subunit delta isoform (Homo sapiens, UniProt O00329); assay: biochemical
T1 sequence (O00329 whole entry): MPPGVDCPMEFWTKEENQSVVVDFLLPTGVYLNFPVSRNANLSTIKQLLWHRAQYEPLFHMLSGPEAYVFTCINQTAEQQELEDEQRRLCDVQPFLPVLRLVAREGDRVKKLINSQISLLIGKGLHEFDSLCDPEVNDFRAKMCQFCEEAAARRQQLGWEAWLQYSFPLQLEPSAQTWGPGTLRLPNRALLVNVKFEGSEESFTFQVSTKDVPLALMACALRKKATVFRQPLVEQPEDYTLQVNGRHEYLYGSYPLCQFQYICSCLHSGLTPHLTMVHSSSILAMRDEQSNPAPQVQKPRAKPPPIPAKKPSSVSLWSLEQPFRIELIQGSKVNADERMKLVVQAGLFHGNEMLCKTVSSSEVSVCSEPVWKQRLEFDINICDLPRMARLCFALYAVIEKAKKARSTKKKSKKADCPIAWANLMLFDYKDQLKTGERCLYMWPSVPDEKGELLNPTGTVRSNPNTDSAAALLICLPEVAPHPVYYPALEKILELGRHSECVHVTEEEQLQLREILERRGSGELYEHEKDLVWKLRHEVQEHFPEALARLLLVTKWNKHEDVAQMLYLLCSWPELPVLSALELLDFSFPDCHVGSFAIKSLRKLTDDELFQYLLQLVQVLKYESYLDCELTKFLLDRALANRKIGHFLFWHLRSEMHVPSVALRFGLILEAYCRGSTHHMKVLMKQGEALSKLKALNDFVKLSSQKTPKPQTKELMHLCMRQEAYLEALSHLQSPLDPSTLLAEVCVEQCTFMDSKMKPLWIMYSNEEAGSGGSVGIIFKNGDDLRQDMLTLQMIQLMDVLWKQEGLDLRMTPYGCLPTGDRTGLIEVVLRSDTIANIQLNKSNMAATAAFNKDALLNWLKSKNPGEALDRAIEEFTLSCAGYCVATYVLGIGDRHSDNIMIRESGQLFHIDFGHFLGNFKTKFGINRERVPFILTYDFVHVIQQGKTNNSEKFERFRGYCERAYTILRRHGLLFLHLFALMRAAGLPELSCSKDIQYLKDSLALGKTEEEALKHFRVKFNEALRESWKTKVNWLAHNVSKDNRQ
Description: Inhibition of human N-terminal poly-His tagged-PI3Kdelta expressed in Sf9 baculovirus system co-expressing p85alpha after 20 mins by AlphaScreen assay

in vivo [7] = conditions: rat, iv, 1 mg/kg; remark: listed apart in the source
Description: Volume of distribution at steady state in rat at 1 mg/kg, iv

[8] = target: Phosphatidylinositol 4,5-bisphosphate 3-kinase catalytic subunit beta isoform (Homo sapiens, UniProt P42338); assay: biochemical
Description: Inhibition of human N-terminal poly-His tagged-PI3Kbeta expressed in Sf9 baculovirus system co-expressing p85alpha after 20 mins by AlphaScreen assay

[9] = target: Serine/threonine-protein kinase mTOR (Homo sapiens, UniProt P42345)
Description: Inhibition of recombinant GST-tagged mTOR-mediated 4EBP1 phosphorylation after 90 mins by FRET assay

[10] = target: Serine/threonine-protein kinase B-raf (Homo sapiens, UniProt P15056, V600E)
[11] = target: Phosphatidylinositol 4,5-bisphosphate 3-kinase catalytic subunit alpha isoform (Homo sapiens, UniProt P42336); assay: biochemical
Description: Inhibition of human N-terminal poly-His tagged-PI3Kalpha expressed in Sf9 baculovirus system co-expressing p85alpha after 20 mins by AlphaScreen assay

[12] = target: Phosphatidylinositol 3-kinase catalytic subunit type 3 (Homo sapiens, UniProt Q8NEB9)
Phosphatidylinositol 3-kinase catalytic subunit type 3, sequence (Q8NEB9 whole entry): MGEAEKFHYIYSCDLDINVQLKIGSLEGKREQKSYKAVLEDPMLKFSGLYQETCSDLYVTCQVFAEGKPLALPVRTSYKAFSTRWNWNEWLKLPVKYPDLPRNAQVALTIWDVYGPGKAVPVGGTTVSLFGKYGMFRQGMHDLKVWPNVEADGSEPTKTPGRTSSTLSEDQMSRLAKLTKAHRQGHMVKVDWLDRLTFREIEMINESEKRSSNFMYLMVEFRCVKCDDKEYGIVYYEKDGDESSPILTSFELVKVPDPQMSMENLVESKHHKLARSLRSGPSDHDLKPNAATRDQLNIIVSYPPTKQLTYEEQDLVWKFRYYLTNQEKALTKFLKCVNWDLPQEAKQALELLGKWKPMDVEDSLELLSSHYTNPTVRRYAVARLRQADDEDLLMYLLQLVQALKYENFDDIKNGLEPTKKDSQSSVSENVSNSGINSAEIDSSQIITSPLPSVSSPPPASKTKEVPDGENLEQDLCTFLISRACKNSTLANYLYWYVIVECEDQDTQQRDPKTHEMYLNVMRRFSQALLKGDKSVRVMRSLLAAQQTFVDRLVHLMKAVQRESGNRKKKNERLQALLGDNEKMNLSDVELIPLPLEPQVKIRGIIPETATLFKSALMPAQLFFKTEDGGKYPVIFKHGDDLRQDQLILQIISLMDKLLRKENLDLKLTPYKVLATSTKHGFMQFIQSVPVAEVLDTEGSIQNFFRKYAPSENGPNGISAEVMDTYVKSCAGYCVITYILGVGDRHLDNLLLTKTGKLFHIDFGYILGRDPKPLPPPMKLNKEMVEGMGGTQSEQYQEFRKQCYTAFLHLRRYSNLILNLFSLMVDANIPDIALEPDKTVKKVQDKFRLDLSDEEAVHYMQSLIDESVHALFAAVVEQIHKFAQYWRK
Description: Inhibition of human VPS34 after 30 mins by fluorescence-based immunoassay

Phosphatidylinositol 4,5-bisphosphate 3-kinase catalytic subunit gamma isoform, sequence (P48736 whole entry, canonical isoform): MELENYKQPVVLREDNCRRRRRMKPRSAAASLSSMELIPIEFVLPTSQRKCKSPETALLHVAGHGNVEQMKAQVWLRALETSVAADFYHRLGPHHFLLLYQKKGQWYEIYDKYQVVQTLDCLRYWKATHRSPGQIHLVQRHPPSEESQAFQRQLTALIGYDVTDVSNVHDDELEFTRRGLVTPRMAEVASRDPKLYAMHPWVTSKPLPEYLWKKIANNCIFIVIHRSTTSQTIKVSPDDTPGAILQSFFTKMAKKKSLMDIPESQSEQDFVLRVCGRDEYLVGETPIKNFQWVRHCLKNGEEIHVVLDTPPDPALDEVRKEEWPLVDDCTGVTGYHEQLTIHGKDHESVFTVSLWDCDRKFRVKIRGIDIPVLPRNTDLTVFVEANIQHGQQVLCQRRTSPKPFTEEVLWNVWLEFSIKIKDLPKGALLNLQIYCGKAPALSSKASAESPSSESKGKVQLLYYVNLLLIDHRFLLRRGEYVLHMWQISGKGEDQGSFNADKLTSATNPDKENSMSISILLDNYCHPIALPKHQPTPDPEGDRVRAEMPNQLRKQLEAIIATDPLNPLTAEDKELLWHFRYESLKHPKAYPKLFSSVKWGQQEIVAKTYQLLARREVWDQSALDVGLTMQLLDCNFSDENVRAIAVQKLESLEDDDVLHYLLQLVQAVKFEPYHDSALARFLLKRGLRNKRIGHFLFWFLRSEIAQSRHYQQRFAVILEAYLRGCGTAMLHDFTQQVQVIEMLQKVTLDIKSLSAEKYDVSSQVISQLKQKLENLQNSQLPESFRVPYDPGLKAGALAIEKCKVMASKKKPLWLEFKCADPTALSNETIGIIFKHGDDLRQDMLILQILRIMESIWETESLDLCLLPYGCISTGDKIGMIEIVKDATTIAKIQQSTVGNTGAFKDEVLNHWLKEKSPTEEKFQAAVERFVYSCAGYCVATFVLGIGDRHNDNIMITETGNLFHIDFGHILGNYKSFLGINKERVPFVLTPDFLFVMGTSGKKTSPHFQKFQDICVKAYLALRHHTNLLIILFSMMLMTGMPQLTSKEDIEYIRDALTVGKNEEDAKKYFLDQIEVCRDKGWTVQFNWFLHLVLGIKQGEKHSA
Phosphatidylinositol 4,5-bisphosphate 3-kinase catalytic subunit beta isoform, sequence (P42338 whole entry, canonical isoform): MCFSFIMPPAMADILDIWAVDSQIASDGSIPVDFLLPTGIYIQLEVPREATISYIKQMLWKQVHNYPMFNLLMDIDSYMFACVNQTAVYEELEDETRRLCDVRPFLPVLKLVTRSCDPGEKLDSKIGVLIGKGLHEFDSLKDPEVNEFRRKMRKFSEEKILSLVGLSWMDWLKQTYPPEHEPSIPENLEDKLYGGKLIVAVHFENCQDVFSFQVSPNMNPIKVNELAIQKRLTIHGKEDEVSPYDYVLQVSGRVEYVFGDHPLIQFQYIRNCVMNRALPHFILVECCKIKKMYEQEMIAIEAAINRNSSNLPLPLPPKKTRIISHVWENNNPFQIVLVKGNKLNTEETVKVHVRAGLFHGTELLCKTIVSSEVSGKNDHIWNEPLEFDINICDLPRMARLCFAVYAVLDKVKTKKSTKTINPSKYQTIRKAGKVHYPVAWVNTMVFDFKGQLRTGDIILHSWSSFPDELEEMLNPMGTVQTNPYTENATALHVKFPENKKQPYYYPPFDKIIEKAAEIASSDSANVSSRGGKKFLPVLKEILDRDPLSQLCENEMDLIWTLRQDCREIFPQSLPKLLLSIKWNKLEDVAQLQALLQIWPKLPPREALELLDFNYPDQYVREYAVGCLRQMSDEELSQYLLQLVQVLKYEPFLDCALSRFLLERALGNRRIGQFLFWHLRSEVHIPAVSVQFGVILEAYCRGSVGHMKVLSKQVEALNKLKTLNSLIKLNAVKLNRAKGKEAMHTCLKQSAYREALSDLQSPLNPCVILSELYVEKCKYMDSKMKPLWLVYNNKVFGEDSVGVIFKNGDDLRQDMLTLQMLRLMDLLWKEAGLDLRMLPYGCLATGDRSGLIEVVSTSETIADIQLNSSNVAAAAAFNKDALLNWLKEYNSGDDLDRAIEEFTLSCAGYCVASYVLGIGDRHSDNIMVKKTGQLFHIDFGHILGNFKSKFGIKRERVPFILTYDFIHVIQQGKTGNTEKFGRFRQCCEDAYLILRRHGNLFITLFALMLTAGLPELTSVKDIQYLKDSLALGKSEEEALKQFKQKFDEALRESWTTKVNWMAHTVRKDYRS
Serine/threonine-protein kinase B-raf, sequence (P15056 2-766 V600E limits assumed): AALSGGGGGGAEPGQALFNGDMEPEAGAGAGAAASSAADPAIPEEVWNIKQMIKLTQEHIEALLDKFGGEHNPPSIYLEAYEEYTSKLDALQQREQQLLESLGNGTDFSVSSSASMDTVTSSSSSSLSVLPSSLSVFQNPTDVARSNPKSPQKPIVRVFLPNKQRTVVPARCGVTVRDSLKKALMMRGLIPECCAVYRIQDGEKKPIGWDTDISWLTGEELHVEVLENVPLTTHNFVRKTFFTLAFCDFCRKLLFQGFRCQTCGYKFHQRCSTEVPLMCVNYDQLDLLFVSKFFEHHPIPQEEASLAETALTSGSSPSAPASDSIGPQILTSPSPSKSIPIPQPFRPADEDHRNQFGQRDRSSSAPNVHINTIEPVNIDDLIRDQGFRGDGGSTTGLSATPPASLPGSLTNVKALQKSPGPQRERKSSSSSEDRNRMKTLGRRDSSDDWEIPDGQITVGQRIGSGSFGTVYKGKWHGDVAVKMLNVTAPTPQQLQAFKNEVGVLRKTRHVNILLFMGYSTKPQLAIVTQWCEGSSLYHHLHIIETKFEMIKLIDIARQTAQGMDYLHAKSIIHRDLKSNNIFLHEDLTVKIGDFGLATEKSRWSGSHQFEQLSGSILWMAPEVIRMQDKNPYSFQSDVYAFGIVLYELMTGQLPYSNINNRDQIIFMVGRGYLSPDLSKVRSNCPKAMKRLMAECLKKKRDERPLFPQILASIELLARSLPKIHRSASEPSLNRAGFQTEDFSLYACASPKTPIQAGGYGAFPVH
Phosphatidylinositol 4,5-bisphosphate 3-kinase catalytic subunit alpha isoform, sequence (P42336 whole entry, canonical isoform): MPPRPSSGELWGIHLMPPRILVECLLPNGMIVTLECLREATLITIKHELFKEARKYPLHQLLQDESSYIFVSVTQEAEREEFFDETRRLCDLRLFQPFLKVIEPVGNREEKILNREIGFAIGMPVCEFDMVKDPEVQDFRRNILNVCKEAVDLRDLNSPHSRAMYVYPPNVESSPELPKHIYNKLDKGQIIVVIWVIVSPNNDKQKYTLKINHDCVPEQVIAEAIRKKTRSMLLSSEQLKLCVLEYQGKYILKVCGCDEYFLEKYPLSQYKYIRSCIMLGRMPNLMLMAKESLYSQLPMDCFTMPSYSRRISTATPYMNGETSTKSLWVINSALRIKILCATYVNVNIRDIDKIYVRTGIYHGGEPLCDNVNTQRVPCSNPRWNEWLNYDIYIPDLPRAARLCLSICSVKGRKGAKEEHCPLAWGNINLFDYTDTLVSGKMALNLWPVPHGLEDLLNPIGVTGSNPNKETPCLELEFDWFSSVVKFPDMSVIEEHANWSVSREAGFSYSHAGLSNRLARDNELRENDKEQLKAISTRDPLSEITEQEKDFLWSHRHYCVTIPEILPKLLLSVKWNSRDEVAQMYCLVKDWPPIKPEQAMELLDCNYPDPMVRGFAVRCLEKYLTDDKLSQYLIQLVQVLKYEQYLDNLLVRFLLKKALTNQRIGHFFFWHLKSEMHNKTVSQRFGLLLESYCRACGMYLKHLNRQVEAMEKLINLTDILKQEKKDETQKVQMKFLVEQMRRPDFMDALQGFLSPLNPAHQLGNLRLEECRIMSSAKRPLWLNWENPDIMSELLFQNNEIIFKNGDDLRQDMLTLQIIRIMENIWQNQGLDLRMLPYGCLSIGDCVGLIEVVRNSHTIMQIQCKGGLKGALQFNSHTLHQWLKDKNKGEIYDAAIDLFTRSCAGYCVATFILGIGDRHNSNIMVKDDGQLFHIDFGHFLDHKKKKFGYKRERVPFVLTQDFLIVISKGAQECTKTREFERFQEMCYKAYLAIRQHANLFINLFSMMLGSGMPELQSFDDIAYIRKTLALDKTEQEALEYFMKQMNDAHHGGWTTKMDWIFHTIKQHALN

COc1ccc(Nc2ncc(Cc3ccc(S(C)(=O)=O)cc3)cc2-c2nc(C)nc(N)n2)cn1 showed a Ki [1] of 7 nM, a clearance (in vivo [2]) of 30 mL/min/kg and a microsomal CLint (in vitro) of 59 µL/min/mg. For the same compound, the AUC (in vivo [3]) was 0.04 µM·h, the MRT (in vivo [4]) was 1.2 h and the bioavailability [5] was 2%. For the same compound, the Ki [6] was 1 nM and the Vd (in vivo [7]) was 2.1 L/kg.
Compound COc1ccc(Nc2ncc(CN3CCC(S(C)(=O)=O)CC3)cc2-c2nc(C)nc(N)n2)cn1 has a Ki [1] of 9 nM, a clearance (in vivo [2]) of 41.7 mL/min/kg and a microsomal CLint (in vitro) of 20 µL/min/mg. The AUC (in vivo [3]) was 0.33 µM·h, the MRT (in vivo [4]) was 1.3 h and the bioavailability [5] was 18%. It also gave a Ki [6] of 3 nM, a Ki [8] of 5 nM and a Vd (in vivo [7]) of 2.9 L/kg.
With COc1ccc(Nc2ncc(CC3CCN(S(C)(=O)=O)CC3)cc2-c2nc(C)nc(N)n2)cn1 the Ki [1] was 8 nM, the clearance (in vivo [2]) was 46.7 mL/min/kg and the microsomal CLint (in vitro) was 111 µL/min/mg. It also gave an AUC (in vivo [3]) of 0.04 µM·h, an MRT (in vivo [4]) of 1 h and a bioavailability [5] of 3%. The Ki [6] was 4 nM, the Ki [8] was 15 nM and the Vd (in vivo [7]) was 2.7 L/kg.
In the case of Cc1nc(N)c(F)c(-c2cccnc2Nc2cccc3[nH]ncc23)n1, the Ki [1] is reported as 330 nM, the IC50 [9] is reported as > 10000 nM and the microsomal CLint (in vitro) is reported as 71 µL/min/mg. The IC50 [10] was > 1000 nM, the Ki [6] was 810 nM and the Ki [8] was 990 nM. The Ki [11] was 930 nM.
With Nc1cc(-c2cccnc2Nc2cccc3[nH]ncc23)nc(C(F)(F)F)n1 the Ki [1] was 3600 nM, the IC50 [9] was > 10000 nM and the microsomal CLint (in vitro) was 76 µL/min/mg. The IC50 [10] was > 1000 nM, the Ki [6] was > 10000 nM and the Ki [8] was 1300 nM. For the same compound, the Ki [11] was 3200 nM.
In the case of Cc1nc(-c2cccnc2Nc2cccc3n[nH]cc23)c2c[nH]nc2n1, the Ki [1] is reported as 450 nM, the IC50 [9] is reported as > 10000 nM and the microsomal CLint (in vitro) is reported as 56 µL/min/mg. The IC50 [10] was > 1000 nM, the Ki [6] was 5000 nM and the Ki [8] was 2300 nM. It also gave a Ki [11] of 1700 nM.
For Cc1cc(-c2cccnc2Oc2cccc3[nH]ccc23)nc(N)n1, the Ki [1] was > 10000 nM, the IC50 [9] was > 10000 nM and the microsomal CLint (in vitro) was 218 µL/min/mg. For the same compound, the IC50 [10] was > 1000 nM, the Ki [6] was > 10000 nM and the Ki [8] was > 10000 nM. For the same compound, the Ki [11] was > 10000 nM.
In the case of COc1ccc(N(C)c2ncccc2-c2nc(C)nc(N)n2)cn1, the Ki [1] is reported as > 10000 nM, the IC50 [9] is reported as > 10000 nM and the microsomal CLint (in vitro) is reported as 41 µL/min/mg. For the same compound, the IC50 [10] was > 1000 nM, the Ki [6] was > 10000 nM and the Ki [8] was > 10000 nM. The Ki [11] was > 10000 nM.
With Cc1cc(-c2cccnc2Nc2cccc(O)c2)nc(N)n1 the Ki [1] was 2600 nM, the IC50 [9] was > 10000 nM and the microsomal CLint (in vitro) was 118 µL/min/mg. The IC50 [10] was > 1000 nM, the Ki [6] was 6000 nM and the Ki [8] was > 10000 nM. For the same compound, the Ki [11] was 4900 nM.
For Cc1ncnc(-n2c(Nc3cccc(O)c3)nc3ccccc32)n1, the Ki [1] was 4 nM, the IC50 [9] was 7 nM and the microsomal CLint (in vitro) was 218 µL/min/mg. The IC50 [10] was > 1000 nM, the Ki [6] was 3 nM and the Ki [8] was 4 nM. The Ki [11] was 2 nM.
With Cc1nc(N)nc(-c2cccnc2Nc2cccc3[nH]ncc23)n1 the Ki [1] was 88 nM, the IC50 [9] was > 10000 nM and the microsomal CLint (in vitro) was 65 µL/min/mg. The IC50 [12] was > 9000 nM, the IC50 [10] was > 1000 nM and the Ki [6] was 130 nM. The Ki [8] was 51 nM and the Ki [11] was 92 nM.
With Cc1nc(N)nc(-c2cccnc2Nc2cccc3[nH]ccc23)n1 the Ki [1] was 45 nM, the microsomal CLint (in vitro) was 110 µL/min/mg and the IC50 [12] was > 9000 nM. For the same compound, the IC50 [10] was > 1000 nM, the Ki [6] was 25 nM and the Ki [8] was 9 nM.
In the case of Cc1nc(N)cc(-c2cccnc2Nc2cccc3[nH]ncc23)n1, the Ki [1] is reported as 91 nM, the IC50 [9] is reported as > 10000 nM and the microsomal CLint (in vitro) is reported as 75 µL/min/mg. The IC50 [10] was > 1000 nM, the Ki [6] was 370 nM and the Ki [8] was 110 nM. The Ki [11] was 150 nM.
